On to `CC(=O)c1ccc(C2CC(C)(C)CC(C)(C)C2)c(Cl)c1`, for which the melting point stood at 64 °C.
To `CCCC(=O)NN=C(C)c1sc(C)nc1C` belongs 124 °C; to `CC(C)C(NS(=O)(=O)c1ccc(-c2ccc(NC(=O)c3cc4cc(Br)ccc4o3)cc2)cc1)C(=O)O` (stereo not given), 263 to 265 °C.
Take `CCCCCCCCCCCCCCCO/N=C(\CCCCCCCCCCCCCCC)CC(=O)O`: the melting point lay in the range of 65 to 67 °C.
The compound `CCOC(=O)c1cn(CCCl)c2cc(N3CCN(C)CC3)c(F)cc2c1=O` came in with a melting point of 208 °C.
In turn, `CC(=O)c1c[nH]c(C)n1` came in with a melting point of 124 to 127 °C.
On to `CCOC(=O)C1=CCCCC1S(=O)(=O)Nn1c(Br)ccc1Br` (stereo not given), for which the melting point fell in the range of 123 to 124 °C.
`CCSc1ccc(CC(=O)NC(NC(=NC#N)Nc2cccc3ncccc23)C(C)(C)C)cc1` (stereo not given): the melting point lay in the range of 189 to 190 °C.
Compound `COc1ccc(-c2ccc(C(=O)Nc3ccc4nc(CN5CCCC5)ccc4c3)cc2)cc1` returned a melting point of 197 to 199 °C.
For `O=C1C[C@H](C(=O)Nc2ccc(N3CCOCC3=O)cc2)N(C(=O)Nc2ccc(Cl)cc2)C1`, the melting point was determined as 154 °C.
On to `Cc1cc2c([nH]1)CC(c1ccccc1)CC2=O` (stereo not given), for which the melting point lay in the range of 203 to 205 °C.
The compound `CCOC(=O)/C=C/c1cn(-c2ccc(C(F)(F)F)cc2)nc1C(C)C` yielded a melting point of 118 to 119 °C.
Compound `COC(=O)Cc1ccc(C(=O)c2ccccc2)n1C` showed a melting point of 96 to 98 °C.
Take `O=[N+]([O-])c1ccc2c(c1)[nH]c1cc([N+](=O)[O-])ccc12`: the melting point is over 300 °C.
Regarding `O=C(Nc1cccc2cnccc12)NC1CC2(CCC2)Oc2c(O)cccc21` (stereo not given), the melting point fell in the range of 246 to 247 °C.
`O=C(NC1CCN(CCCOc2ccccc2-c2ncc(C(=O)O)c(O)n2)CC1)c1ccccc1` returned a melting point of 145 to 146 °C.
Turning to `O=C(O)c1ccc2c(c1)S(=O)c1cc(F)ccc1C=C2` (stereo not given), the melting point fell in the range of 255 to 257 °C.
For the compound `COC(=O)c1cc(S)cc(S)c1`, the melting point fell in the range of 61 to 62 °C.
Compound `CC(C)N1CCc2ccc(C(=O)CCC(=O)N3CCC(c4ccc(Cl)cc4)CC3)cc2C1` registered a melting point of 113 to 115 °C.
`O=C(N1CC(CCl)c2c1cc([N+](=O)[O-])c1ccccc21)C(F)(F)F` (stereo not given) returned a melting point of 182 °C.
Compound `O=C1COc2cc(SCc3ccc(Cl)cc3)ccc2N1` registered a melting point of 174 to 175 °C.
The compound `CCOC(=O)C1=Cc2cc(Cl)cc(C#N)c2OC1C(F)(F)F` (stereo not given) gave a melting point of 115 to 116 °C.
`O=C1CCCN2N=C(c3ccc(Br)cc3)SC2=N1` displayed a melting point of 204 to 207 °C.
In the case of `CC(Oc1ncn(-c2ccc(C(F)(F)F)cc2)n1)C(N)=O` (stereo not given), the melting point lay within 178 to 180 °C.
In turn, `O=C(O)CCC(=O)c1ccc(NC(=O)c2cccc(F)c2)cc1` returned a melting point of 239 to 241 °C.
In the case of `CC(C)c1ccc(CN(C(=N)N)c2ccc3c4c(cccc24)CC3)cc1`, the melting point fell in the range of 153 to 155 °C.
In turn, `CC1(C)CON(Cc2c(Cl)cccc2[N+](=O)[O-])C1=O` registered a melting point of 86 to 88 °C.
The compound `Cc1c(F)c(N2CCNC(C)C2)cc2c1c(=O)c(C(=O)O)cn2C1CC1` (stereo not given) came in with a melting point of 189 to 192 °C.
Consider `CSc1nc2c(cc1F)c(=O)[nH]c(=O)n2C1CC1`, for which the melting point is 220 to 222 °C.
On to `CCOC(=O)c1nc(Br)n2c1c(=O)n(C)c1cc(C(F)(F)F)ccc12`, for which the melting point lay in the range of 205 to 207 °C.
Turning to `COC(=O)c1[nH]ccc1OC(C)C`, the melting point fell in the range of 77 to 79 °C.
Compound `CCOCc1nc2c(N)nc3ccccc3c2n1CC1(OCCS(C)(=O)=O)CCN(C(C)=O)CC1` gave a melting point of 208 to 210 °C.
With `CNc1nc(C)c(-c2cn3ccccc3n2)s1`, the melting point lay within 228 to 229 °C.
In turn, `CCCCCCCCN1C=C(C)C(=c2c(C)cc(=CC=C3C=C(C(C)(C)C)C(=O)C(C(C)(C)C)=C3)cc2C)C(C)=C1` displayed a melting point of over 280 °C.
In the case of `COc1ccc(-n2c(-c3cc(-c4ccc(Cl)cc4)c(N4CCOCC4)s3)nc3ccccc3c2=O)cc1`, the melting point was in the range of 217 to 218 °C.
For the compound `O=C(O)c1cc(Br)cc(OCc2ccccc2Cl)c1OCc1ccccc1Cl`, the melting point was 186 to 187 °C.
As for `O=C(O)COc1cccc2c1CCCC2CCOC(=O)N(c1ccccc1)c1ccccc1` (stereo not given), the melting point was 145 °C.
For `COc1cc(S(N)(=O)=O)cc(C(=O)Cl)c1OC` the value was 153 °C.
For `Cc1ccc(-c2nnc[nH]2)cc1-c1cc2cnc(NC3CCOCC3)nc2n(C)c1=O`, the melting point fell in the range of 215 to 216 °C.
To `N#Cc1ncn2c(C(F)(F)F)cc(-c3ccc(C(F)(F)F)cc3)nc12` belongs 236 °C; to `O=S(=O)(C(/C=C/c1ccc(F)cc1)c1c(F)c(F)c(F)c(F)c1F)C(/C=C/c1ccc(F)cc1)c1c(F)c(F)c(F)c(F)c1F` (stereo not given), 133 to 136 °C; to `COc1ccccc1-c1cc(S(=O)(=O)c2ccc(N)cc2)cc(N2CCCC2)n1`, 217 to 219 °C.
Consider `CC1NCC(CO)CC1OC(=O)c1ccncc1` (stereo not given), for which the melting point lay in the range of 126 to 128 °C.
On to `CC(C)(C)NS(=O)(=O)c1cnc(-c2cn(-c3cc(C(F)(F)F)cc(-c4ccc(C(F)(F)F)cc4)n3)cn2)s1`, for which the melting point was found to be 236 °C.
Take `COc1ccc(-c2[nH]nc3c2C(=O)c2c(NC(N)=O)cccc2-3)cc1`: the melting point was 267 to 269 °C.
`CCC(=O)Nc1cccc2c1CCC(NC(=O)CC)C2` (stereo not given): the melting point amounted to 270 °C.
The compound `CCc1oc2ccccc2c1C(=O)NCc1ccc2c(Br)c(O)ccc2c1` returned a melting point of 188 to 190 °C.
For `COc1ccc(CC#Cc2ccc3c(c2)c(=O)n(Cc2ccccc2)c2nncn32)cc1`, the melting point amounted to 267 °C.
Consider `COc1cc(C(C)=O)cc(OC)c1OC(C)=O`, for which the melting point came out at 145 °C.
With `Cc1nnnn1/C=C\SC(c1ccccc1)(c1ccccc1)c1ccccc1`, the melting point fell in the range of 208 to 210 °C.
To `Cc1c(O[Si](C)(C)C(C)(C)C)cc(N2C(=O)c3ccccc3C2=O)cc1C(=O)OCc1ccc([N+](=O)[O-])cc1` belongs 125 to 127 °C.
`Cc1cc(CNC(=O)c2cc(-c3ccc(C(C)(C)C)cc3)[nH]n2)ccc1OC(C)(C)C(=O)O` showed a melting point of 100 °C.
In turn, `COc1ccc(C=CC2=NN(c3ccc([N+](=O)[O-])cc3)C(c3ccc(OC)c(O)c3)C2)cc1O` (stereo not given) had a melting point of 215 to 217 °C.
For the compound `O=C(O)c1cc(=O)c2cc3c(=O)cc(C(=O)O)[nH]c3c(Cl)c2[nH]1`, the melting point is over 310 °C.
`COC(C)=Nc1nc[nH]c1C#N` yielded a melting point of 147 to 149 °C.
In the case of `CC[C@@]1(C)OC(=O)C(c2ccc(F)c(F)c2)=C1c1ccc(S(C)(=O)=O)cc1`, the melting point was found to be 144 °C.
The compound `O=C1CCC(c2ccc(NC3=NCCO3)cc2)=NN1` registered a melting point of 332 to 333 °C.
Consider `COC(=O)C1=CN(CCCc2ccccc2)C=C(C(=O)OC)C1c1ccc(OC)c(OC)c1`, for which the melting point is 107 to 113 °C.
As to `OCc1cc2cc(-c3ccc4ccc(Cl)cc4n3)ccc2o1`, the melting point was 206 to 207 °C.
Turning to `COCCOC(=O)c1ccc(C)c(-n2c(C)cc(OCc3ccccc3CNC(=O)Nc3cc(C(C)(C)C)nn3-c3cccc(OCCO)c3)c(Cl)c2=O)c1`, the melting point fell in the range of 143 to 145 °C.
As to `CC(Br)C(=O)c1cc(C(N)=O)cs1` (stereo not given), the melting point was in the range of 116 to 117 °C.
For `CC1=C(C(=O)OCCCO[N+](=O)[O-])C(c2cccc([N+](=O)[O-])c2)C(C(=O)OCCNC(=O)c2ccccn2)=C(C)N1` (stereo not given) the value was 146 to 148 °C.
To `CCOP(=O)(/C=C/c1cn(-c2ccccc2)nc1OCc1ccc(OCc2nc(-c3cccc(C(=O)O)c3)oc2C)cc1)OCC` belongs 153 to 155 °C; to `CNC(=NCCCCc1nccs1)NC#N`, 87 to 89.5 °C; to `CC(Oc1ccc([N+](=O)[O-])cc1)C(=O)O` (stereo not given), 139 to 141 °C.
For the compound `FC(F)(F)c1cc(I)ccc1-c1ccc(I)cc1C(F)(F)F`, the melting point was 119 to 120 °C.
`COC(=O)c1cc(C#Cc2ccc(C(=O)OC(C)(C)C)cc2)cnc1Cl`: the melting point lay in the range of 123 to 124 °C.
`Fc1cc(F)c(-c2c(Cl)nc(Cl)n2-c2ccc(Cl)cc2)c(F)c1` had a melting point of 112 to 119 °C.
With `COc1ccc(-n2nc3c4c([nH]cc-3c2=O)CCCC4)cc1`, the melting point lay within 279 to 282 °C.
For `COC(=O)C=Cc1ccc(OCc2nc(-c3ccc4ccccc4c3)oc2C)cc1` the value was 185 to 186 °C; for `Oc1cc2[nH]c3c(O)c(O)ccc3c2cc1O`, over 280 °C.
As for `O=C1[C@H]2CCC[C@H]2Nc2ccccc2N1Cc1ccc([N+](=O)[O-])cc1` (relative stereo), the melting point lay in the range of 154 to 155 °C.
For `COCCNCc1ccc(-c2cc3ncnc(Nc4ccc5[nH]ccc5c4)c3s2)cc1`, the melting point is 170 to 190 °C.
As for `Cc1cc(C(C)(C)C)c(OC(=O)c2ccccc2C(=O)Oc2c(C(C)(C)C)cc(C)cc2C(C)(C)C)c(C(C)(C)C)c1`, the melting point lay in the range of 262 to 265 °C.
For `Cc1cc(-c2cc(C(F)(F)F)nn2-c2ccc(S(C)(=O)=O)c(F)c2)ccc1-c1cocn1`, the melting point is 141 to 143 °C.
For `C#Cc1cccc(Nc2ncnc3cnc(F)cc23)c1` the value was 225 to 227 °C; for `COC(=O)c1ccc(N)cc1O`, 118 to 120 °C.
For `Cc1ccc(OCC(O)CNC(C)(C)C)c(C2=NNC(=O)CC2)c1` (stereo not given), the melting point lay within 126 to 128 °C.
For the compound `Cn1c(S(=O)(=O)C(F)(F)C(F)F)nc(-c2ccc(F)cc2)c1-c1ccc(F)cc1`, the melting point lay in the range of 122 to 124 °C.
In the case of `O=C(O)COc1ccc(SCc2ccc(OCc3cc(Cl)ccc3Cl)cc2)c2c1CCC2`, the melting point was 158 to 160 °C.
Regarding `NCCCNC(=O)c1ccc(-c2ccc3nnn(Cc4ccc5ncccc5c4)c3n2)cc1F`, the melting point lay in the range of 292 to 294 °C.
In turn, `CN(CCO)C(=O)C(C)(C)NC(=O)c1cc2c(n(CC3CCCCC3)c1=O)CCCCCC2` gave a melting point of 195 to 196 °C.
As to `Cc1cc(-c2c[nH]c(N)n2)ccn1`, the melting point was 226 to 228 °C.
For `CC(=O)[C@@H]1C/C=C(/C)C/C=C/[C@H](C)[C@H](O[Si](C)(C)C(C)(C)C)[C@@H](C)C(=O)C(C)(C)[C@@H](O[Si](C)(C)C(C)(C)C)CC(=O)O1` the value was 85 °C; for `Cn1nnc2c(N)cc3nc(O)c(O)nc3c21`, over 300 °C.

Broadly, the melting point is the temperature, or range, at which the solid turns liquid.
